Results from patent US6521620B1, “Bicyclic compounds capable of inhibiting tyrosine kinases of the epidermal growth factor receptor family” (Warner-Lambert Company, priority 1994, dated 2003).
Read-outs that look alike come from different tables or passages of the source.

Experiments:
[1] = test system: erbB-2, 3, 4; experiment: Inhibition of conditioned media-induced autophosphorylation in SK-BR-3 breast tumor cells; format: cell-based, human; settings: SK-BR-3 cells, read-out: SKBR-3 IC50
Protocol: (§1) Cells were grown to 100% confluency in 100 mm Petrie dishes (Corning). After the cells were treated for 5 minutes with either EGF (epidermal growth factor), PDGF, or bFGF (basic fibroblast growth factor) (20 ng/ml) or 1 ml of conditioned media from MDA-MB-231 cells, the media was removed and the monolayer scraped into 1 ml of ice cold lysis buffer (50 mM Hepes, pH 7.5, 150 mM NaCl, 10% glycerol, 1% triton X-100, 1 mM EDTA, 1 mM EGTA, 10 mM sodium pyrophosphate, 30 mM p-nitrophenyl phosphate, 1 mM orthovanadate, 50 mM sodium fluoride, 1 mM phenylmethylsulfonylfluoride, 10 μg/ml of aprotinin, and 10 μg/ml of leupeptin). The lysate was transferred to a microfuge tube (small centrifuge that holds 1-2 ml plastic centrifuge tubes), allowed to sit on ice 15 minutes and centrifuged 5 minutes at 10,000×g. The supernatant was transferred to a clean microfuge tube and 5 μg of antibody was added to designated samples. The tubes were rotated for 2 hours at […] after which 25 μl of protein A sepharose was added and then rotation continued for at least 2 more hours. The protein A separose was washed 5 times with 50 mM Hepes, pH 7.5, 150 mM NaCl, 10% glycerol and 0.02% sodium azide. […] The extract were transferred to a microfuge tube and heated to 100° C. for 5 minutes. […] Proteins in the gel were electrophoretically transferred to nitrocellulose and the membrane was washed once in 10 mM Tris buffer, pH 7.2, 150 mM NaCl, 0.01% Azide (TNA) and blocked overnight in TNA containing 5% bovine serum albumin and 1% ovalbumin (blocking buffer). The membrane was blotted for 2 hours with the primary antibody (1 μg/ml in blocking buffer) and then washed 2 times sequentially in TNA, TNA containing 0.05% Tween-20 and 0.05% Nonidet P-40 (commercially available detergent) and TNA.

[2] = biological target: T1, EGF receptor (Homo sapiens, UniProt P00533); experiment: Inhibition of EGF-induced autophosphorylation in A431 epidermoid carcinoma cells; format: cell-based
T1 construct: EGF receptor autophosphorylation in A431 human epidermoid carcinoma; endogenous in cells; host or cells: A431 human epidermoid carcinoma cells (ATCC)
Protocol: as §1

[3] = test system: NIH 3T3 mouse fibroblast line, transfected with the human EGFR gene; experiment: Morphology of EGF-treated NIH 3T3 fibroblasts transfected with the human EGFR gene; format: cell-based; settings: 100 ng/mL of EGF and 5 μm of compound (FIG. 17)
Protocol: FIG. 15 is a photograph of an NIH 3T3 mouse fibroblast line, transfected with the human EGFR gene showing a normal flattened morphology;
FIG. 16 is a photograph of the same cell line treated with 100 ng/mL of EGF showing a typical spindly transformed morphology; and […]

[4] = biological target: T2, Human EGF receptor tyrosine kinase (Homo sapiens, UniProt P00533); experiment: EGF receptor tyrosine kinase inhibition (phosphorylation of PLC-gamma 1 derived peptide); format: biochemical
T2 construct: isolated from A431 human epidermoid carcinoma cells which overexpress EGF receptor; endogenous in cells; host or cells: A431 human epidermoid carcinoma cells; purified from the lysate on wheat germ agglutinin sepharose
Protocol: Purification of Epidermal Growth Factor Receptor Tyrosine Kinase—Human EGF receptor tyrosine kinase was isolated from A431 human epidermoid carcinoma cells which overexpress EGF receptor by the following methods. Cells were grown in roller bottles in 50% Delbuco's Modified Eagle and 50% HAM F-12 nutrient media (Gibco) containing 10% fetal calf serum. Approximately 10^9 cells were lysed in two volumes of buffer containing 20 mM 2-(4N-[2-hydroxyethyl]piperazin-1-yl)ethanesulfonic acid (hepes), pH 7.4, 5 mM ethylene glycol bis(2-aminoethyl ether) N,N,N′,N′-tetraacetic acid, 1% Triton X-100, 10% glycerol, 0.1 mM sodium orthovanadate, 5 mM sodium fluoride, 4 mM pyrophosphate, 4 mM benzamide, 1 mM dithiothreitol, 80 μg/mL aprotinin, 40 μg/mL leupeptin and 1 mM phenylmethylsulfonyl fluoride. After centrifugation at 25,000×g for 10 minutes, the supernatant was equilibrated for 2 h at 4° C. with 10 mL of wheat germ agglutinin sepharose that was previously equilibrated with 50 mM Hepes, […], 0.1% Triton X-100 and 150 mM NaCl, pH 7.5, (equilibration buffer). Contaminating proteins were washed from the resin with 1 M NaCl in equilibration buffer, and the enzyme was eluted with 0.5 M N-acetyl-1-D-glucosamine in equilibration buffer, followed by 1 mM urea. The enzyme was eluted with 0.1 mg/ml EGF.
The reaction was terminated by the addition of 2 mL of […] phosphoric acid and passed through a 2.5 cm phosphocellulose filter disc to bind the peptide. The filter was washed five times with 75 mM phosphoric acid and placed in a vial along with 5 mL of scintillation fluid (Ready gel Beckman).

[5] = test system: p39^c-jun; experiment: Growth factor mediated expression of p39 c-jun in Swiss 3T3 (Western blot); format: cell-based, mouse
Protocol: Monoclonal antibodies raised to the PDGF ([…]) receptor or phosphotyrosine were from Upstate Biotechnology, Inc., Lake Placid, N.Y. Anti-pp39^jun (antibody to the transcription factor c-jun, which is a 39 kDalton phosphoprotein) and anti-EGF receptor antibodies were from Oncogene Science, Uniondale, N.Y.
Cells were grown to 100% confluency in 100 mm Petrie dishes (Corning). After the cells were treated for 5 minutes with either EGF (epidermal growth factor), PDGF, or bFGF (basic fibroblast growth factor) (20 ng/ml) or 1 ml of conditioned media from MDA-MB-231 cells, the media was removed and the monolayer scraped into 1 ml of ice cold lysis buffer (50 mM Hepes, pH 7.5, 150 mM NaCl, 10% glycerol, 1% triton X-100, 1 mM EDTA, 1 mM EGTA, 10 mM sodium pyrophosphate, 30 mM p-nitrophenyl phosphate, 1 mM orthovanadate, 50 mM sodium fluoride, 1 mM phenylmethylsulfonylfluoride, 10 μg/ml of aprotinin, and 10 μg/ml of leupeptin). The lysate was transferred to a microfuge tube (small centrifuge that holds 1-2 ml plastic centrifuge tubes), allowed to sit on ice 15 minutes and centrifuged 5 minutes at 10,000×g. The supernatant was transferred to a clean microfuge tube and 5 μg of antibody was added to designated samples. The tubes were rotated for 2 hours at […] after which 25 μl of protein A sepharose was added and then rotation continued for at least 2 more hours. The protein A separose was washed 5 times with 50 mM Hepes, pH 7.5, 150 mM NaCl, 10% glycerol and 0.02% sodium azide. The precipitates were resuspended with 30 μl of Laemlli buffer (Laemmli, […], pp. 680-685, 1970), heated to 100° C. for 5 minutes and centrifuged to obtain the supernatant. Whole cell extracts were made by scraping cells grown in the wells of 6 well plates into 0.2 ml of boiling Laemmli buffer. The extract were transferred to a microfuge tube and heated to 100° C. for 5 minutes. […]

[6] = test system: c-jun mRNA; experiment: Growth factor dependent expression of c-jun mRNA in Swiss 3T3 (Northern blot); format: cell-based, mouse; settings: Swiss 3T3 cells, EGF-stimulated (FIG. 7)
Protocol: Total cellular RNA was isolated from untreated control or treated Swiss 3T3 cells using RNAzol-B (trademark of Tel Test Inc. for a kit used to isolate RNA from tissues) and adhered to the protocol described by the manufacturer. Forty to fifty μg of RNA was loaded onto a 1% agarose gel and electrophoresis carried out for 3-4 hours at 65 volts. The RNA in the gel was transferred by capillary action to a nylon membrane (Hybond-N, Amersham). The 40 mer c-jun probe was end labeled with [^32p]ATP using […] (Promega) and purified on a G25 sephadex column according to the procedure recommended by the supplier, Oncogene Science. Hybridization was performed overnight at 65° C. (c-jun is an immediate early transcription factor; it is one of the components of AP-1 while FOS is the second component of AP-1.
Gel of Example 40 (FIG. 7) detects mRNA-for c-jun by hybridization with a specific radiolabelled RNA probe for c-jun.

[7] = Table 1, values in nM, read-out: EGF Receptor Tyrosine Kinase Inhibition IC50

T2 sequence (P00533 25-1210): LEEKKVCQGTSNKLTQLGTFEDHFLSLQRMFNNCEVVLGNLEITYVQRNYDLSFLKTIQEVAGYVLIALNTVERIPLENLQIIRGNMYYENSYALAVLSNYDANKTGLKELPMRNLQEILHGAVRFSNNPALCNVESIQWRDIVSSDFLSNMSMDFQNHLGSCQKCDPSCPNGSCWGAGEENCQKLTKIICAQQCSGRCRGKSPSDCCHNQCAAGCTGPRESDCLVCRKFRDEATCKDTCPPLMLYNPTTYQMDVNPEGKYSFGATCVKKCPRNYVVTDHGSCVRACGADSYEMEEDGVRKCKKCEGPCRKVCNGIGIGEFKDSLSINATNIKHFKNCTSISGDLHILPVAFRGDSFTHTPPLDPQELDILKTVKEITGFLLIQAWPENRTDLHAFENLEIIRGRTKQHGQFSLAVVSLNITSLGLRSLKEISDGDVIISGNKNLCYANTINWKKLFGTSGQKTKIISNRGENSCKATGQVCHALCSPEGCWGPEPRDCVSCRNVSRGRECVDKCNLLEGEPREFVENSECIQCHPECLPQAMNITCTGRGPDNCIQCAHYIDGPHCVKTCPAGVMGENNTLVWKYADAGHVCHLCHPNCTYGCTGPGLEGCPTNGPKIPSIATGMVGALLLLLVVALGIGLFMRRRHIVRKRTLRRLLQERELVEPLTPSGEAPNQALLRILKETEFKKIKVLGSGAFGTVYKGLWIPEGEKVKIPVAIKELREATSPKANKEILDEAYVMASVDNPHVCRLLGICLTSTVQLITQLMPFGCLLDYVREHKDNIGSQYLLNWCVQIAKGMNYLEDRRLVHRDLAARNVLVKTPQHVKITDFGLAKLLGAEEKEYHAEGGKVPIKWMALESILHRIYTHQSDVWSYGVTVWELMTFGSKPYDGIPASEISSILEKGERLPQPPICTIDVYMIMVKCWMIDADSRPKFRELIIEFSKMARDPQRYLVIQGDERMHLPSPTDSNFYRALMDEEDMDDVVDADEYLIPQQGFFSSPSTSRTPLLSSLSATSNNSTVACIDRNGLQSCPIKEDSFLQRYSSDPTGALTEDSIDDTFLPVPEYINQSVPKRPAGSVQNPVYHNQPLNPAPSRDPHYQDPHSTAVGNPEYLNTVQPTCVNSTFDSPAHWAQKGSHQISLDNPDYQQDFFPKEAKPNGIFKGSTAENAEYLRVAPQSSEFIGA
T1 sequence (P00533 25-1210): as above

SMILES: Nc1cc2ncnc(Nc3cccc(Br)c3)c2cn1 [Example 27, 7-Amino-4-(3-bromoanilino)pyrido[4,3-d]pyrimidine]
- IC50 [1]: ~800 nM
- IC50 [2]: 110 nM
- cell morphology [3]: morphology reverted from the transformed type back to the normal type
- IC50 [4, 7]: 10 nM
- IC50 ([4]; enzyme value repeated in the autophosphorylation table, read-out: EGFR IC50): 10 nM

SMILES: Nc1cc2ncnc(NCc3ccccc3)c2cn1 [Example 40, 7-Amino-4-benzylaminopyrido[4 3-d]pyrimidine]
- c-jun expression (p39 c-jun protein) ([5]; Swiss 3T3, stimulated by EGF (FIG. 8)): block c-jun expression
- c-jun expression (p39 c-jun protein) ([5]; Swiss 3T3, stimulated by PDGF (FIG. 8)): not when stimulated by PDGF or b-FGF
- c-jun expression (p39 c-jun protein) ([5]; Swiss 3T3, stimulated by b-FGF (FIG. 8)): not when stimulated by PDGF or b-FGF
- IC50 [4, 7]: 578 nM
- c-jun mRNA production [6]: blocks this production for EGF-stimulated cells
